# Measured values as given in patent publication US20030044413A1, “Methods of limiting apoptosis of cells” (Regents of the University of Minnesota, priority 1998, published 2003).
# Read-outs that look alike come from different tables or passages of the source.
# Key:
# [1] = system: Hep G2 cells; test: FACS analysis of ΔΨm and ROS, Hep G2 cells; format: cell-based
# Experimental: A ΔΨm and ROS measurement. ΔΨm and ROS production were measured by FACScan (Becton Dickinson) analysis. Freshly isolated rat hepatocytes were cultured for 3 h as described above and then incubated with William's E medium supplemented with either 100 μM DCA, 100 μM UDCA, equal molar amounts of both, or no bile acid (control), for 6 h. Rat hepatocytes were also cultured with either 1% ethanol, 100 μM UDCA, ethanol+UDCA, or no addition (control) for 4 h. HuH-7 cells, Hep G2 cells, and human osteogenic sarcoma Saos-2 cells were incubated with TGF-β1, anti-Fas antibody or okadaic acid, respectively, for 48 h under the same conditions as outlined above. For combination studies, cells were pretreated with UDCA or hyodeoxycholic acid for 60 min prior to addition of DCA, ethanol, TGF-β1, anti-Fas antibody or okadaic acid. Aliquots of 1.0×10^6 cells were incubated for 15 min at 37° C. with 50 nM 3,3′-dihexyloxacarbocyanine iodide [DiOC6(3)], 2 μM dihydroethidium (HE), or 5 μM 2′,7′-dichlorofluorescin diacetate (H2DCFDA; Molecular Probes, Inc. Eugene, Oreg.) and analyzed by cytofluorometry (Cathcart et al., Anal. Biochem., 134, 111-116 (1983); Zamzami et al., J. Exp. Med., 181, 1661-1672 (1 995); Carter et al., J. Leukocyte Biol., 55, 253-258 (1994)).
# Rat primary hepatocytes were incubated with 100 μM DCA and 1% ETOH for 6 h and 4 h, respectively; HuH-7 cells with 1 nM TGF-β1 for 48 h; Hep G2 cells with 0.5 μg/ml anti-Fas antibody (CH-11) for 48 h, and Saos-2 cells with 50 nM okadaic acid (OA) for 48 h. In each combination group, cells were pretreated with 100 μM UDCA alone for 60 min prior to addition of the inducer. Aliquots of 1.0×10^6 cells were incubated for 15 min at 37° C. with 5 μM 2′,7′-dichlorofluorescin diacetate (H2DCFDA) and analyzed by cytofluorometry.
# [2] = system: cytochrome c; test: Cytochrome c content of cytosol and mitochondria of rat hepatocytes; format: cell-based; details: Hepatocyte, hepatocytes with DCA, TGF-β1 or okadaic acid, 100 μM UDCA
# Experimental: Isolation of cytosol and mitochondrial fractions and determination of cytochrome c and Bax content. Freshly isolated rat hepatocytes were cultured for 3 hours as described above and then incubated with William's medium supplemented with either 50 μM of DCA for 4 h, 1 nM TGF-β1 for 24 h and […] okadaic acid for 16 h, in the presence or absence of 100 μM UDCA, or no addition (control). Time-course experiments were also performed. Cells (1.0×10^7/ml) were harvested by centrifugation at 600×g for 5 min at 4° C. The cell pellets were washed once in ice-cold PBS and resuspended with 3 volumes of isolation buffer containing 20 mM Hepes-KOH, pH 7.5, 10 mM KCl, 1.5 mM MgCl2, 1 mM sodium EDTA, 1 mM sodium EGTA, 1 mM dithiothreitol (DTT), suplemmented with the COMPLETE protease inhibitor cocktail (Boehringer Mannheim Biochemicals, Inc., Indianapolis, Ind.) in 250 mM sucrose. After chiling on ice for 15 min, the cells were disrupted by 40 stokes of a glass homogeneizer and the homogenates were centrifuged twice at 2,500×g for 10 min at 4° C. to remove unbroken cells and nuclei. The mitochondria were pelleted by centrifugation at 12,000×g for 30 min at 4° C., resuspended in isolation buffer containing 250 mM sucrose and frozen at −80° C. […]
# [3] = inducer CH-11, Hep G2, inhibition by UDCA
smiles,measurement,setting,value
"C[C@H](CCC(=O)O)[C@H]1CC[C@H]2[C@@H]3[C@@H](O)C[C@@H]4C[C@H](O)CC[C@]4(C)[C@H]3CC[C@]12C [UDCA, ursodeoxycholic acid]",Peroxides Production (%) Inducer + UDCA,"[1]; 0.5 μg/ml CH-11 48 h, 100 μM UDCA pretreatment 60 min",6.2 ± 1.3 %
same,inhibition at 100 µM,"[1]; Homo sapiens, HepG2, inducer CH-11, Hep G2, 100 μM UDCA, read-out: % Inhibition of peroxides production",52.2 ± 14.9%
same,Inhibition % Superoxide Anion,[1]; [3],55.1 ± 10.8 %
same,Inhibition % _Ψm,[1]; [3],63.1 ± 11.9%
same,inhibition at 100 µM,[2]; read-out: inhibition of cytochrome c depletion from the mitochondria,70%
same,inhibition at 100 µM,[2]; read-out: inhibition of cytochrome c release to the cytosol,60%
